Drawing on PubChem BioAssay AID248 (DTP/NCI, 2004), this text covers T/C for 6 molecules.

“And” between values parts separate entries of the source, which are not always exact repeats. Equal values may be shown once. Inconclusive results and toxic doses are left out.

The subject of the assay is L1210 leukemia ip in BDF1 mice, survival T/C. Kind of assay: NCI In Vivo Anticancer Drug Screen. Data for tumor model L1210 Leukemia (intraperitoneal) in B6D2F1 (BDF1) mice. Particulars: higher = longer survival. An outline of the steps: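 Read-out is survival time, reported as the treated-group measurement over the vehicle-control measurement.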

Regarding `CC(=O)C=O`, the T/C is, setting by setting: (endpoint: mean survival time, dose: 12.5 mg/kg/injection, schedule: Q01DX009 (ip), vehicle: saline) 98 % of control; (endpoint: mean survival time, dose: 20.5 mg/kg/injection, schedule: Q01DX006 (ip), vehicle: saline) 100 % of control; (endpoint: mean survival time, dose: 20.5 mg/kg/injection, schedule: Q ##X009 (ip), vehicle: saline) 102 % of control; (endpoint: mean survival time, dose: 20.5 mg/kg/injection, schedule: Q## X Z (ip), vehicle: saline) 101 % of control; (endpoint: mean survival time, dose: 25.0 mg/kg/injection, schedule: Q01DX009 (ip), vehicle: saline) 88 % of control; (endpoint: mean survival time, dose: 29.5 mg/kg/injection, schedule: Q01DX006 (ip), vehicle: saline) 105 % of control. Besides, the T/C is 98 % of control (endpoint: mean survival time, dose: 29.5 mg/kg/injection, schedule: Q ##X009 (ip), vehicle: saline); 97 % of control (endpoint: mean survival time, dose: 29.5 mg/kg/injection, schedule: Q## X Z (ip), vehicle: saline); 107 % of control (endpoint: mean survival time, dose: 41.0 mg/kg/injection, schedule: Q03DX002 (ip), vehicle: saline); 96 % of control (endpoint: mean survival time, dose: 42.0 mg/kg/injection, schedule: Q01DX006 (ip), vehicle: saline); 110 % of control (endpoint: mean survival time, dose: 42.0 mg/kg/injection, schedule: Q ##X009 (ip), vehicle: saline); 110 % of control (endpoint: mean survival time, dose: 42.0 mg/kg/injection, schedule: Q## X Z (ip), vehicle: saline). Besides, the T/C by setting is: (endpoint: mean survival time, dose: 50.0 mg/kg/injection, schedule: Q01DX009 (ip), vehicle: saline) 93 % of control; (endpoint: mean survival time, dose: 50.0 mg/kg/injection, schedule: Q01DX009 (ip), vehicle: water) 110 % of control; (endpoint: mean survival time, dose: 60.0 mg/kg/injection, schedule: Q01DX006 (ip), vehicle: saline) 106 % of control and 107 % of control; (endpoint: mean survival time, dose: 60.0 mg/kg/injection, schedule: Q ##X009 (ip), vehicle: saline) 91 % of control; (endpoint: mean survival time, dose: 60.0 mg/kg/injection, schedule: Q## X Z (ip), vehicle: saline) 91 % of control; (endpoint: mean survival time, dose: 71.0 mg/kg/injection, schedule: Q03DX002 (ip), vehicle: saline) 118 % of control. In addition, the T/C was 113 % of control (endpoint: mean survival time, dose: 75.0 mg/kg/injection, schedule: Q01DX009 (ip), vehicle: water); 113 % of control (endpoint: mean survival time, dose: 93.0 mg/kg/injection, schedule: Q01DX001 (ip), vehicle: saline); 97 % of control (endpoint: mean survival time, dose: 100.0 mg/kg/injection, schedule: Q01DX009 (ip), vehicle: saline); 110 % of control (endpoint: mean survival time, dose: 100.0 mg/kg/injection, schedule: Q01DX009 (ip), vehicle: water); 116 % of control (endpoint: mean survival time, dose: 107.0 mg/kg/injection, schedule: Q03DX002 (ip), vehicle: saline); 123 % of control (endpoint: mean survival time, dose: 127.0 mg/kg/injection, schedule: Q01DX001 (ip), vehicle: saline). The T/C was 103 % of control (endpoint: mean survival time, dose: 150.0 mg/kg/injection, schedule: Q01DX009 (ip), vehicle: water); 111 % of control (endpoint: mean survival time, dose: 160.0 mg/kg/injection, schedule: Q03DX002 (ip), vehicle: saline); 97 % of control (endpoint: mean survival time, dose: 200.0 mg/kg/injection, schedule: Q01DX001 (ip), vehicle: saline); 104 % of control (endpoint: mean survival time, dose: 200.0 mg/kg/injection, schedule: Q01DX009 (ip), vehicle: saline); 91 % of control (endpoint: mean survival time, dose: 200.0 mg/kg/injection, schedule: Q01DX009 (ip), vehicle: water); 111 % of control (endpoint: mean survival time, dose: 400.0 mg/kg/injection, schedule: Q01DX009 (ip), vehicle: saline). In addition, the T/C (endpoint: median survival time, dose: 35.0 mg/kg/injection, schedule: Q01DX005 (ip), vehicle: other) is 104 % of control; the T/C (endpoint: median survival time, dose: 35.0 mg/kg/injection, schedule: Q01DX005 (ip), vehicle: saline sonified) was 105 % of control; the T/C (endpoint: median survival time, dose: 44.0 mg/kg/injection, schedule: Q01DX005 (ip), vehicle: other) was 104 % of control; the T/C (endpoint: median survival time, dose: 44.0 mg/kg/injection, schedule: Q01DX005 (ip), vehicle: saline sonified) is 105 % of control; the T/C (endpoint: median survival time, dose: 55.0 mg/kg/injection, schedule: Q01DX005 (ip), vehicle: other) was 106 % of control; the T/C (endpoint: median survival time, dose: 55.0 mg/kg/injection, schedule: Q01DX005 (ip), vehicle: saline sonified) is 111 % of control. Moreover, the T/C was 107 % of control (endpoint: median survival time, dose: 69.0 mg/kg/injection, schedule: Q01DX005 (ip), vehicle: other); 111 % of control (endpoint: median survival time, dose: 69.0 mg/kg/injection, schedule: Q01DX005 (ip), vehicle: saline sonified); 110 % of control (endpoint: median survival time, dose: 86.0 mg/kg/injection, schedule: Q01DX005 (ip), vehicle: other); 111 % of control (endpoint: median survival time, dose: 86.0 mg/kg/injection, schedule: Q01DX005 (ip), vehicle: saline sonified); 101 % of control (endpoint: median survival time, dose: 175.0 mg/kg/injection, schedule: Q01DX001 (ip), vehicle: other); 100 % of control (endpoint: median survival time, dose: 175.0 mg/kg/injection, schedule: Q01DX001 (ip), vehicle: saline sonified). Besides, the T/C runs as follows: (endpoint: median survival time, dose: 194.0 mg/kg/injection, schedule: Q01DX001 (ip), vehicle: other) 101 % of control; (endpoint: median survival time, dose: 194.0 mg/kg/injection, schedule: Q01DX001 (ip), vehicle: saline sonified) 100 % of control; (endpoint: median survival time, dose: 216.0 mg/kg/injection, schedule: Q01DX001 (ip), vehicle: other) 98 % of control; (endpoint: median survival time, dose: 216.0 mg/kg/injection, schedule: Q01DX001 (ip), vehicle: saline sonified) 100 % of control; (endpoint: median survival time, dose: 240.0 mg/kg/injection, schedule: Q01DX001 (ip), vehicle: other) 118 % of control; (endpoint: median survival time, dose: 240.0 mg/kg/injection, schedule: Q01DX001 (ip), vehicle: saline sonified) 116 % of control. Also, the T/C is, setting by setting: (endpoint: median survival time, dose: 268.0 mg/kg/injection, schedule: Q01DX001 (ip), vehicle: other) 107 % of control; (endpoint: median survival time, dose: 268.0 mg/kg/injection, schedule: Q01DX001 (ip), vehicle: saline sonified) 105 % of control; (endpoint: median survival time, dose: 298.0 mg/kg/injection, schedule: Q01DX001 (ip), vehicle: other) 116 % of control; (endpoint: median survival time, dose: 298.0 mg/kg/injection, schedule: Q01DX001 (ip), vehicle: saline sonified) 116 % of control.
As to `O=C(NCCCCN1CC1)C(=O)NCCCCN1CC1`, the T/C is 108 % of control (endpoint: mean survival time, dose: 1.5 mg/kg/injection, schedule: Q04DX003 (ip), vehicle: Klucel (hydroxypropylcellulose) (HPC)); 118 % of control (endpoint: mean survival time, dose: 3.0 mg/kg/injection, schedule: Q04DX003 (ip), vehicle: Klucel (hydroxypropylcellulose) (HPC)); 155 % of control (endpoint: mean survival time, dose: 8.0 mg/kg/injection, schedule: Q04DX003 (ip), vehicle: Klucel (hydroxypropylcellulose) (HPC)); 177 % of control (endpoint: mean survival time, dose: 18.0 mg/kg/injection, schedule: Q04DX003 (ip), vehicle: Klucel (hydroxypropylcellulose) (HPC)).
Consider `CCOC(=O)CC/C(C)=N\N(C)C`, for which the T/C was 93 % of control (endpoint: mean survival time, dose: 100.0 mg/kg/injection, schedule: Q04DX003 (ip), vehicle: saline); 97 % of control (endpoint: mean survival time, dose: 200.0 mg/kg/injection, schedule: Q04DX003 (ip), vehicle: saline); 93 % of control (endpoint: mean survival time, dose: 400.0 mg/kg/injection, schedule: Q04DX003 (ip), vehicle: saline).
For `C1#CCCCCCC#CCCCC1`, the T/C is 89 % of control (endpoint: mean survival time, dose: 37.5 mg/kg/injection, schedule: Q01DX009 (ip), vehicle: acetone); 91 % of control (endpoint: mean survival time, dose: 75.0 mg/kg/injection, schedule: Q01DX001 (ip), vehicle: acetone); 97 % of control (endpoint: mean survival time, dose: 75.0 mg/kg/injection, schedule: Q01DX009 (ip), vehicle: acetone); 94 % of control (endpoint: mean survival time, dose: 150.0 mg/kg/injection, schedule: Q01DX001 (ip), vehicle: acetone); 98 % of control (endpoint: mean survival time, dose: 150.0 mg/kg/injection, schedule: Q01DX009 (ip), vehicle: acetone).
With `CCOC(=O)n1c(=O)[nH]c2ccccc21`, the T/C is 97 % of control (endpoint: mean survival time, dose: 87.5 mg/kg/injection, schedule: Q04DX003 (ip), vehicle: carboxymethylcellulose (CMC)); 91 % of control (endpoint: mean survival time, dose: 175.0 mg/kg/injection, schedule: Q04DX003 (ip), vehicle: carboxymethylcellulose (CMC)); 101 % of control (endpoint: mean survival time, dose: 350.0 mg/kg/injection, schedule: Q04DX003 (ip), vehicle: carboxymethylcellulose (CMC)).
With `CCOC(=O)CC1CCC/C1=N/O` (stereo not given), the T/C is 98 % of control (endpoint: mean survival time, dose: 75.0 mg/kg/injection, schedule: Q01DX009 (sc), vehicle: olive oil, sesame oil, peanut oil); 94 % of control (endpoint: mean survival time, dose: 150.0 mg/kg/injection, schedule: Q01DX009 (sc), vehicle: olive oil, sesame oil, peanut oil); 100 % of control (endpoint: mean survival time, dose: 300.0 mg/kg/injection, schedule: Q01DX009 (sc), vehicle: olive oil, sesame oil, peanut oil).
